Assay results as given in PMC13086964, “USP7 deubiquitinase stabilizes FAN1 to support DNA crosslink repair and suppress CAG repeat expansion” (Nature Communications, 2026).

Assays:
Assay type in all cases: cell-based, human
[1] = tested on: HeLa cells; test: clonogenic survival assay, HeLa parental; settings: MMC 10, 20, and 40 ng/ml, 24 h, n=4
Method: (§1) HeLa and RPE-1 p53 KO cells were transfected with the indicated siRNA. The next day, the cells were seeded in six-well plates. The next day, the cells were treated with MMC for 24 h. Plates were then washed twice with 2 ml of PBS before adding fresh growth medium to the cells, that were then cultured for 13 days at 37 °C before fixation with crystal violet solution [0.5% crystal violet and 20% ethanol (w/v)]. For analysis, plates were scanned and analysed with the ImageJ Plugin ColonyArea using the parameter “intensity percent”. […]
(§2) the mean (dashed lines) are indicated. Representative images are shown (bottom). Scale bar: 10 μm. […]
(§3) Western blot analysis of HeLa cells depleted of the indicated factors. (E) Clonogenic survival assay of the HeLa cells depleted of the indicated factors (Ctrl: black circle; FANCD2: red square; USP7#1: inverted blue triangle; USP7#2: cyan triangle; RAD18: brown diamond) and exposed to increasing doses of MMC for 24 h. Viability of untreated cells was defined as 100%. Data are presented as the means ± SD of four biological replicates (n=4). Representative images are shown (left). (F) Western blot analysis of HeLa and HeLa FAN1 KO cells depleted of the indicated factors. […]

[2] = tested on: HeLa FAN1 KO cells; test: clonogenic survival assay, HeLa FAN1 KO; settings: MMC 10, 20, and 40 ng/ml, 24 h, n=3
Method: as §1, §2, §3

[3] = tested on: USP7 foci in U2OS cells; test: QIBC of endogenous USP7 foci; settings: MMC 150 ng/ml, 24 h
Method: Automated multichannel wide-field microscopy for QIBC was performed using the Olympus ScanR System as described previously. Images of cell populations were acquired under non-saturating conditions with Olympus ScanR Image Acquisition software 3.2 and 3.3.0, typically 16 (4×4) images per coverslip, and identical settings were applied to all samples of the same experiment. Images were analysed with the inbuilt Olympus ScanR Image Analysis Software Version 3.2 and 3.3.0, a dynamic background correction was applied, and nuclei segmentation was performed using an integrated intensity-based object detection module based on the DAPI signal. All downstream analyses were focused on properly detected nuclei containing a 2C-4C DNA content as measured by total and mean DAPI intensities. Fluorescence intensities were quantified and are depicted as arbitrary units. Color-coded scatterplots of asynchronous cell populations were generated with Spotfire data visualization software (TIBCO Spotfire 10.10.1.7). Within one experiment, similar cell numbers were compared for the different conditions. For visualizing discrete data in scatterplots, mild jittering (random displacement of data points along discrete data axes) was applied to demerge overlapping data points. Representative scatterplots and quantifications of independent experiments, typically containing several thousand cells each, are shown. […]

CO[C@@]12[C@H](COC(N)=O)C3=C(C(=O)C(C)=C(N)C3=O)N1C[C@@H]1N[C@@H]12 [MMC, Mitomycin C]
MMC sensitivity, RAD18 or FANCD2 depletion [1]: more pronounced effects | MMC sensitivity, USP7 depletion ([1]; two independent USP7 siRNA): only a modest increase MMC sensitivity | MMC sensitivity, RAD18 or FANCD2 depletion [2]: additive increase in sensitivity | MMC sensitivity, USP7 depletion [2]: did not exacerbate MMC hypersensitivity | USP7 nuclear foci [3]: increased modestly in numbers
